Strand notation (5' to 3'): a small letter for the sugar, then the base; units joined by * are phosphorothioate-linked, units joined directly phosphodiester-linked; [ ] holds rarer units or linkages, { } end groups; capitals alone tell only the bases. e = 2'-O-(2-methoxyethyl) (MOE); [5mC] = 5-methylcytosine; d = 2'-deoxy (DNA)

In one series the test system is human PKK mRNA. The series is described as follows: Antisense inhibition of human PKK mRNA in HepaRG cells, 5,000 nM (Example 2). The class given is cell-based. The note with it: HepaRG cells, 5,000 nM antisense oligonucleotide; 5-10-5 gapmers; Table 16. In a few lines: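 HepaRG cells (20,000/well) electroporated with 5,000 nM MOE gapmer (phosphorothioate backbone, 5-methylcytosines) and harvested after ~24 h. PKK mRNA measured by qRT-PCR with primer probe set RTS3454, normalized to RIBOGREEN total RNA; percent inhibition versus untreated cells.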
In the case of “546529 (eG*e[5mC]*eA*e[5mC]*e[5mC]*dT*dG*dG*d[5mC]*dA*dG*dA*dA*d[5mC]*dA*eG*eT*eA*e[5mC]*e[5mC]; antisense) [compound 546529]”, the “% inhibition” value stood at 65%.
On the same count and under the same terms, the same measure for “546578 (eG*eA*e[5mC]*eA*eG*dT*dG*dG*dG*d[5mC]*d[5mC]*dA*dG*dA*dG*e[5mC]*e[5mC]*eT*eT*eG; antisense) [compound 546578]”: 73%.

The series is the same for the next values; noted with them: HepaRG cells, 5,000 nM antisense oligonucleotide; 5-10-5 gapmers; Table 17.
Consider “546599 (eA*eA*eG*eA*eG*dT*dA*dA*dG*d[5mC]*d[5mC]*dT*dT*d[5mC]*dA*e[5mC]*eA*eG*eG*eG; antisense) [compound 546599]”, for which the “% inhibition” value is 82%.
The same measure, in the same setting: the value for “546606 (e[5mC]*eT*e[5mC]*eA*e[5mC]*d[5mC]*dA*dG*dA*dG*dT*dT*dG*dT*d[5mC]*e[5mC]*e[5mC]*e[5mC]*eA*eG; antisense) [compound 546606]” was 0%.

The same series, now with this note: HepaRG cells, electroporation, 5,000 nM antisense oligonucleotide, approx. 24 hours, primer probe set RTS3454, relative to untreated control cells; Table 12.
On to “546508 (eG*e[5mC]*eA*eG*e[5mC]*dA*dA*dG*dT*dG*d[5mC]*dT*d[5mC]*d[5mC]*d[5mC]*e[5mC]*eA*eT*eG*e[5mC]; antisense) [compound 546508]”, for which the “% inhibition” value was found to be 43%.
Same read-out and setting: the same measure for “546511 (eG*eT*eG*eA*eT*dG*dA*dA*dA*dG*dT*dA*d[5mC]*dA*dG*e[5mC]*eA*eG*e[5mC]*eA; antisense) [compound 546511]”: 50%.
On the same count and under the same terms, the value for “546683 (eT*e[5mC]*e[5mC]*eT*eA*dT*d[5mC]*d[5mC]*dG*dT*dG*dT*dT*d[5mC]*dA*eG*e[5mC]*eT*eG*eT; antisense) [compound 546683]” was 69%; that for “546684 (eT*eA*e[5mC]*eT*e[5mC]*dT*d[5mC]*dT*dA*d[5mC]*dA*dT*dA*d[5mC]*dT*e[5mC]*eA*eG*eG*eA; antisense) [compound 546684]” was 71%.
The same measure, in the same setting: the value for “546687 (eT*eG*eA*eG*eA*d[5mC]*d[5mC]*dT*d[5mC]*d[5mC]*dA*dG*dA*d[5mC]*dT*eA*e[5mC]*eT*eG*eT; antisense) [compound 546687]” was 76%.
Regarding “546690 (e[5mC]*eT*e[5mC]*eT*eG*d[5mC]*dT*dG*dG*dT*dT*dT*dT*dA*dG*eA*e[5mC]*e[5mC]*eA*e[5mC]; antisense) [compound 546690]”, the “% inhibition” value is 44%.
Same read-out and setting: the same measure for “546695 (eG*eG*eG*eA*e[5mC]*dA*dA*dT*d[5mC]*dT*d[5mC]*d[5mC]*dA*d[5mC]*d[5mC]*e[5mC]*e[5mC]*e[5mC]*eG*eA; antisense) [compound 546695]”: 36%; for “546698 (eT*eG*e[5mC]*eA*eG*dA*dG*dT*dG*dT*d[5mC]*dA*dT*d[5mC]*dT*eG*e[5mC]*eG*eA*eA; antisense) [compound 546698]”: 59%.
Same read-out and setting: the same measure for “546700 (eT*eG*eG*eT*eT*d[5mC]*d[5mC]*d[5mC]*dT*dA*dG*d[5mC]*dG*dG*dT*e[5mC]*e[5mC]*eA*eG*eA; antisense) [compound 546700]”: 78%.
Same read-out and setting: the same measure for “546705 (e[5mC]*e[5mC]*e[5mC]*e[5mC]*eT*dG*dT*dA*dG*dT*dT*dG*dG*d[5mC]*dT*eG*eT*eG*eG*eT; antisense) [compound 546705]”: 66%.
In the case of “546707 (eG*e[5mC]*eA*eA*eG*dT*d[5mC]*dA*dA*dA*dG*dA*dG*dT*dG*eT*e[5mC]*e[5mC]*eA*e[5mC]; antisense) [compound 546707]”, the “% inhibition” value was 73%.
The same measure, in the same setting: the same measure for “546710 (eG*eA*eA*eG*e[5mC]*d[5mC]*dT*dG*dT*dT*dA*dG*dA*dG*dT*eT*eG*eG*e[5mC]*e[5mC]; antisense) [compound 546710]”: 73%; for “546719 (e[5mC]*e[5mC]*e[5mC]*e[5mC]*e[5mC]*dA*dT*dG*dT*d[5mC]*d[5mC]*dA*dT*dG*dG*eA*e[5mC]*eT*eT*eT; antisense) [compound 546719]”: 55%.

Still in this series, the particulars now being: Table 13; human PKK mRNA in HepaRG cells; 5-10-5 gapmers.
On to “546732 (eG*eG*eA*eT*eT*dT*dG*dG*d[5mC]*d[5mC]*d[5mC]*dT*dG*dA*dG*e[5mC]*e[5mC]*e[5mC]*e[5mC]*eA; antisense) [compound 546732]”, for which the “% inhibition” value was 14%.
For the substance “546735 (e[5mC]*eA*eA*e[5mC]*e[5mC]*dT*dG*dT*d[5mC]*d[5mC]*dA*dT*dT*d[5mC]*d[5mC]*e[5mC]*eT*eG*eG*eG; antisense) [compound 546735]”, the “% inhibition” value stood at 46%.
As to “546746 (eT*e[5mC]*e[5mC]*eT*eG*dT*dT*dG*d[5mC]*d[5mC]*dT*dG*dA*d[5mC]*dA*eT*eG*e[5mC]*eT*eA; antisense) [compound 546746]”, the “% inhibition” value worked out at 65%.
Still for that read-out and setting: the value for “546747 (e[5mC]*eT*e[5mC]*e[5mC]*e[5mC]*dA*d[5mC]*dT*dG*dA*d[5mC]*dT*dG*dA*d[5mC]*eT*eA*e[5mC]*eT*e[5mC]; antisense) [compound 546747]” was 64%; that for “546749 (eG*e[5mC]*eT*eG*eG*dT*d[5mC]*d[5mC]*dT*dT*dG*dA*dA*d[5mC]*d[5mC]*e[5mC]*e[5mC]*eG*eT*eG; antisense) [compound 546749]” was 53%; that for “546756 (eA*eT*eA*eA*eG*d[5mC]*dA*dT*d[5mC]*dT*d[5mC]*dT*d[5mC]*dT*dG*eA*e[5mC]*e[5mC]*eT*eA; antisense) [compound 546756]” was 47%.
On the same count and under the same terms, the value for “546763 (eG*e[5mC]*eT*eT*e[5mC]*d[5mC]*d[5mC]*d[5mC]*dA*dA*dT*dA*d[5mC]*dT*dT*eG*e[5mC]*eT*eG*eG; antisense) [compound 546763]” was 84%; that for “546765 (eG*eT*eG*eT*e[5mC]*d[5mC]*dA*dG*dA*dA*dT*dA*d[5mC]*dT*dG*e[5mC]*e[5mC]*e[5mC]*e[5mC]*eA; antisense) [compound 546765]” was 82%; that for “546770 (eG*eT*eG*eG*eA*d[5mC]*dG*dA*d[5mC]*dT*dG*d[5mC]*d[5mC]*d[5mC]*dT*eG*eT*eG*e[5mC]*e[5mC]; antisense) [compound 546770]” was 74%.
Same read-out and setting: the value for “546773 (eT*e[5mC]*eT*e[5mC]*eT*dA*dG*d[5mC]*dA*dT*d[5mC]*d[5mC]*dT*dA*dG*eT*e[5mC]*e[5mC]*eT*e[5mC]; antisense) [compound 546773]” was 67%.
Consider “546780 (eA*eT*eA*e[5mC]*eT*dG*dG*d[5mC]*dT*dA*dA*dG*dT*d[5mC]*dA*eG*eG*e[5mC]*e[5mC]*e[5mC]; antisense) [compound 546780]”, for which the “% inhibition” value is listed as 83%.
The same measure, in the same setting: the value for “546784 (eG*eG*e[5mC]*eA*eG*dG*dG*dA*dG*dG*dT*dG*dG*dA*dT*eT*eA*eT*eT*e[5mC]; antisense) [compound 546784]” was 58%.
Consider “546789 (eG*e[5mC]*eT*eT*e[5mC]*dT*d[5mC]*dT*dA*dT*d[5mC]*dT*d[5mC]*d[5mC]*d[5mC]*eA*eG*eT*eG*eT; antisense) [compound 546789]”, for which the “% inhibition” value is given as 79%.
Still for that read-out and setting: the same measure for “546791 (eG*eA*eT*eG*e[5mC]*dA*dT*dG*d[5mC]*dA*dG*d[5mC]*dA*dA*dT*eA*e[5mC]*eA*eG*eG; antisense) [compound 546791]”: 52%; for “546795 (eG*eT*e[5mC]*eT*e[5mC]*dG*dA*dT*dG*dG*d[5mC]*dA*dA*dG*d[5mC]*eT*eG*eT*eA*e[5mC]; antisense) [compound 546795]”: 72%; for “546796 (eG*eT*eA*e[5mC]*eT*d[5mC]*dA*d[5mC]*d[5mC]*dG*dG*dT*dA*d[5mC]*dT*e[5mC]*eT*eG*e[5mC]*e[5mC]; antisense) [compound 546796]”: 82%.
The same measure, in the same setting: the value for “546799 (eA*eT*eG*eA*eA*dG*dG*dG*d[5mC]*dG*dA*dG*dG*d[5mC]*dG*e[5mC]*eA*eG*eT*eG; antisense) [compound 546799]” was 5%; that for “546803 (e[5mC]*e[5mC]*e[5mC]*e[5mC]*eA*dT*dA*d[5mC]*dA*dT*d[5mC]*dT*dA*dT*dG*e[5mC]*eA*eA*eA*eT; antisense) [compound 546803]” was 40%; that for “546804 (eA*e[5mC]*eA*eT*eG*dA*d[5mC]*dT*d[5mC]*d[5mC]*dA*dG*dT*dG*dA*eT*eG*eG*eA*eT; antisense) [compound 546804]” was 57%.
Still for that read-out and setting: the value for “546808 (eA*eA*eA*eA*eT*dG*dA*d[5mC]*dA*d[5mC]*d[5mC]*dA*dA*dA*dA*eT*eT*e[5mC]*eG*e[5mC]; antisense) [compound 546808]” was 0%; that for “546811 (eT*eG*eG*eA*e[5mC]*dA*dT*d[5mC]*d[5mC]*dT*dT*d[5mC]*d[5mC]*d[5mC]*d[5mC]*eT*e[5mC]*eG*e[5mC]*eA; antisense) [compound 546811]” was 49%.
On to “546817 (eG*e[5mC]*eT*e[5mC]*eT*dG*dA*dG*d[5mC]*d[5mC]*dT*dT*d[5mC]*d[5mC]*dG*e[5mC]*e[5mC]*eT*e[5mC]*eT; antisense) [compound 546817]”, for which the “% inhibition” value is 77%.
The same measure, in the same setting: the same measure for “546822 (eA*e[5mC]*eT*eA*eG*dT*dT*dT*d[5mC]*d[5mC]*dT*dA*dT*dA*dA*e[5mC]*eT*eG*e[5mC]*eT; antisense) [compound 546822]”: 32%; for “546823 (eT*eA*e[5mC]*eT*eA*dG*dT*dT*dT*d[5mC]*d[5mC]*dT*dA*dT*dA*eA*e[5mC]*eT*eG*e[5mC]; antisense) [compound 546823]”: 44%.
Still for that read-out and setting: the same measure for “546824 (eG*eT*eA*e[5mC]*eT*dA*dG*dT*dT*dT*d[5mC]*d[5mC]*dT*dA*dT*eA*eA*e[5mC]*eT*eG; antisense) [compound 546824]”: 79%.
As to “546830 (eT*eA*eA*e[5mC]*eA*dG*dT*dA*dT*d[5mC]*dA*d[5mC]*dT*dG*dT*eA*e[5mC]*eT*eA*eG; antisense) [compound 546830]”, the “% inhibition” value was found to be 78%.

Values taken from patent publication US11840686B2, “Modulation of prekallikrein (PKK) expression” (Ionis Pharmaceuticals, Inc., priority 2013, dated 2023).
